Series [1] relates to E2F activity in T. parva-infected B cells. Description: E2F-luc reporter assay, T. parva-infected B cells. It counts as cell-based, bovine. Conditions: penetrating peptide. As to the method: (§1) Since no system for genetic manipulation is available yet for intracellular Theileria, we instead incubated T. parva- and T. annulata-infected bovine leukocytes (transfected with a luciferase reporter regulated from an E2F promoter) with synthesized peptides containing the RB-binding LXCXE motif, or a mutated LXNXE negative control, linked to a cell-penetrating peptide. If the LXCXE-containing peptide can regulate E2F activity in a sequence-specific manner, we would expect it to increase E2F activity, and that this effect would be reduced or abrogated in the mutated LXNXE peptide-treated group.
TpMD409.B2 cells were co-transfected with 20 μg (E2F-luc, mE2F-luc), or 10 μg (cyclin E-luc) reporter construct, 20 μg of expression vector and 5 μg of pCMV-lacZ, where indicated. Luciferase and β-galactosidase activities were measured 24 h after transfection according to previously published procedures. TpMD409.B2 cells were also co-transfected with pCMV-HA-DP-1 D103–126 and c-myc-luciferase as previously described.
The amino acid sequence of RB-1 based on the parasite sequence ([…]) was synthesized. Cysteine in wild type RB1 was replaced by an Asparagine (N; in bold […]). The penetrating peptide to facilitate cell entry is underlined. […]
(Reporter assays use an easily measured gene product as a stand-in for the process of interest.)

The test system of series [2] is E2F activity in T. annulata-infected B cells. Description: E2F-luc reporter assay, T. annulata-infected B cells (TBL20). The format is cell-based, bovine. To be noted: for E2F reporter activity: T. annulata-infected B cells, E2F-luc, 1 μM penetrating peptide, 2 hrs. As to the method:
as §1
(§2) (a) TpMD409B.2 cells were transfected with E2F-luc (WT = wild-type E2F binding construct), or mutated E2F-luc constructs (labeled ‘mutated’) together with a CMV-lacZ plasmid to normalize for transfection efficiency. Luciferase and β-galactosidase activities were measured 24 hrs after transfection. E2F-luc relative luciferase activity normalized to mE2F-luc. Shown is the average of 3 independent experiments with standard deviation. BL20 or TBL20 cells were treated with (b) 1μM of penetrating peptides ([…]-K(FITC)) containing the TpGcpE LXCXE motif, or an LXNXE control ([…]-K(FITC)) or (c) E2F inhibitor or DMSO control, and then counted by hemacytometer after the indicated timepoints. Shown is the average of 3 independent experiments with standard deviation. Then, either (d) virulent Ode T. annulata-transformed macrophages, or (e) BL20/TBL20 T. annulata-transformed cells were transfected with E2F-luc plasmid (or mutated E2F-luc as in (c)) and incubated for 24 hrs at 37 °C. Then, cells were treated with penetrating peptides as in (b) for 2 hrs and luciferase activity was quantified. […]
TpMD409.B2 cells were co-transfected with 20 μg (E2F-luc, mE2F-luc), or 10 μg (cyclin E-luc) reporter construct, 20 μg of expression vector and 5 μg of pCMV-lacZ, where indicated. Luciferase and β-galactosidase activities were measured 24 h after transfection according to previously published procedures. […]

Series [3] concerns E2F activity in T. annulata-infected macrophages. Description: E2F-luc reporter assay, T. annulata-transformed macrophages (Ode). It counts as cell-based, bovine. To be noted: 1 μM penetrating peptide, 2 hrs. As to the method: as §1
as §2, with “Shown is the average of 3 independent experiments with standard deviation. Then, either (d) virulent Ode T. annulata-transformed macrophages, or (e) BL20/TBL20 T. annulata-transformed cells were transfected with E2F-luc plasmid (or mutated E2F-luc as in (c)) and incubated for 24 hrs at 37 °C.” left out

A further series deals with BL20/TBL20 cells. It counts as cell-based, bovine. To be noted: penetrating peptides, 24 h and 48 h; data not shown. As to the method: Since the LXCXE peptide can induce E2F activity, we investigated whether it could, on its own, increase bovine leukocyte proliferation. To extend our observations to T. annulata-infected leukocytes, we incubated T. annulata-infected B cells with WT or mutated LXNXE peptides and counted cell numbers at 24 h and 48 h.
The amino acid sequence of RB-1 based on the parasite sequence ([…]) was synthesized. Cysteine in wild type RB1 was replaced by an Asparagine (N; in bold […]). The penetrating peptide to facilitate cell entry is underlined. 3 different concentrations of peptides were used for 2 h to determine the minimum effective concentration (1 μM) with minimum toxic effect, which was used to perform each experiment as indicated.

Series [4] has as its system T. annulata-infected TBL20 cells. The series can be described thus: Cell proliferation, T. annulata-infected B cells (TBL20), hemacytometer count. It counts as cell-based, bovine. As to the method:
(a) TpMD409B.2 cells were transfected with E2F-luc (WT = wild-type E2F binding construct), or mutated E2F-luc constructs (labeled ‘mutated’) together with a CMV-lacZ plasmid to normalize for transfection efficiency. Luciferase and β-galactosidase activities were measured 24 hrs after transfection. E2F-luc relative luciferase activity normalized to mE2F-luc. Shown is the average of 3 independent experiments with standard deviation. BL20 or TBL20 cells were treated with (b) 1μM of penetrating peptides ([…]-K(FITC)) containing the TpGcpE LXCXE motif, or an LXNXE control ([…]-K(FITC)) or (c) E2F inhibitor or DMSO control, and then counted by hemacytometer after the indicated timepoints. Shown is the average of 3 independent experiments with standard deviation. Then, either (d) virulent Ode T. annulata-transformed macrophages, or (e) BL20/TBL20 T. annulata-transformed cells were transfected with E2F-luc plasmid (or mutated E2F-luc as in (c)) and incubated for 24 hrs at 37 °C. Then, cells were treated with penetrating peptides as in (b) for 2 hrs and luciferase activity was quantified. Data shown are representative of three independent experiments done with biological duplicates, with mean + standard deviation (*P-value < 0.05 compared to untreated; ^‡P-value < 0.05 compared to its respective BL20 control).
The TpMD409.B2 cell line is a T. parva Muguga-infected B-cell clone (B2) whose establishment, phenotypic characteristics and culture conditions have been described[25]–[27]. BL20 cells are a retrovirus-transformed B cell line isolated from an infected cow. To eliminate the parasite, cells were treated for the indicated time with buparvaquone (50 ng/ml, 1 mg/ml stock in ethanol; Sigma). To inhibit E2F activity, cells were treated for the indicated time with HLM006474 (10 μM in DMSO, Sigma), or DMSO (10μM; Sigma) as a control. The T. annulata-infected cell lines BL20 (B cell), as well as Ode (macrophage) cell lines are well described and characterized.
The amino acid sequence of RB-1 based on the parasite sequence ([…]) was synthesized. Cysteine in wild type RB1 was replaced by an Asparagine (N; in bold […]). The penetrating peptide to facilitate cell entry is underlined.

The next series has as its system RB-HDAC1. The series can be described thus: RB-HDAC1 binding with penetrating peptides. The format is cell-based. To be noted: discussion statement.
For series [5], the target named is T1, Retinoblastoma-1 (RB) pocket domain (Homo sapiens, UniProt P06400).
T1 construct: Recombinant, purified RB pocket domain was coupled to the surface of the sensor chip; purchased LDBiopharma HTF-1035
T1 sequence (P06400 373-771 limits assumed): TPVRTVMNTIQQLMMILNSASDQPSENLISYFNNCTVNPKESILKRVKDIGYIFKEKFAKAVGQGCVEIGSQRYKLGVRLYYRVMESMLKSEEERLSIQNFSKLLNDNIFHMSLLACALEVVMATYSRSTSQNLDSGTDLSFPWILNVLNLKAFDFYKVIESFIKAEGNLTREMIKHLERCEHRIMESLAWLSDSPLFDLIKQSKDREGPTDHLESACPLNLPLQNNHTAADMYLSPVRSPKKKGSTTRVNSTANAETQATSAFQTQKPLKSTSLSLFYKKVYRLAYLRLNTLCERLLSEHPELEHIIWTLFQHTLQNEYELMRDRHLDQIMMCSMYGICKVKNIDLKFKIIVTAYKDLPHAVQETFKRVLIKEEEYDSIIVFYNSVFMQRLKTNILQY
Description: Surface plasmon resonance binding to RB pocket domain. Conditions: SPR, RB pocket domain on sensor chip; sequence-scrambled peptides as negative controls. The text has this: Since the proliferation of T. parva-infected host cells is thought to be critical for the pathogenesis of infection, we investigated whether synthesized peptides, each 9 to 19 amino acids long and containing these 15 T. parva motifs, could bind to RB (Supplementary Table 1). Surface plasmon resonance (SPR) was used to screen these peptides for specific RB1 pocket domain-binding activity. Recombinant, purified RB pocket domain was coupled to the surface of the sensor chip, and purified peptides were introduced at various concentrations to quantify kinetics if response curves indicated a detectable protein-protein interaction. Sequence-scrambled peptides were used as negative controls to exclude false-positive signals.
Immobilization of human RB1 protein to CM5 chip
Surface preparation. […]
(§3) Kinetics analysis of binding. […] The analytes (60 µl each, 0–25 µM in HBS-EP buffer with 0.05% P20) were injected into flow cell and the association of analyte and ligand were recorded respectively by surface plasmon resonance (SPR) with a Biacore T200 (Biacore, Inc., New Jersey). […]
(§4) Data analysis. Sensorgrams of the interaction generated by the instrument were analyzed using the software BIAeval 3.2 (Biacore Inc., New Jersey). […]
(Surface plasmon resonance follows binding to a sensor surface in real time, without labels.)

The test system of the next series is RB pocket domain / E2F-1. The series can be described thus: SPR competition of TpGcpE with E2F-1 for the RB pocket domain. The format is binding, human. To be noted: TpGcpE bound to saturation, then E2F-1 added.
Description: In order to map the site of the interaction of the LXCXE motif with the RB pocket domain, we used SPR to test the ability of full-length TpGcpE protein to compete with two proteins that have known, well-characterized interactions with the RB pocket domain, E2F1 and HDAC1. The RB pocket domain was coupled to the surface of the sensor chip, and purified, recombinant, full-length TpGcpE was introduced into the flow channel to bind the RB pocket domain to saturation; then either purified, recombinant E2F-1 or HDAC1 was added to the channel and the response curve recorded to determine if they competed withTpGcpE binding.
(a) A kinetic surface plasmon resonance binding curve (sensorgram) of full-length HDAC1 to the RB pocket domain is shown. (b) Kinetic binding curve of full-length HDAC1 in competition with full-length TpMuguga02_00667 (TpGcpE). (c) A sensorgram of full-length E2F1 to the RB pocket domain is shown. […]
as §3, §4

We go through 3 substances from article PMC7055300, “Theileria parasites subvert E2F signaling to stimulate leukocyte proliferation” (Scientific Reports, 2020).

For the substance “VKKKKIKREIKIYIEEVFTPLVLKNKELK-K(FITC) [LXNXE peptide, penetrating peptide with mutated LXNXE motif, negative control]”, the E2F reporter activity entry in series [1], in series [2] and in series [3] was “did not show the same reporter activity as the LXCXE peptide” each time. The cell viability result with BL20/TBL20 cells was “no effect on cell viability”.
Consider “VKKKKIKREIKIYIEEVFTPLVLKCKELK-K(FITC) [LXCXE peptide, penetrating peptide containing the TpGcpE LXCXE motif, used in cells]”, for which the E2F reporter activity result in series [2] and in series [3] was “increased E2F activity” each time. Moreover, in series [2] (discussion statement, infected leukocytes), the E2F-driven transcription result is “activate E2F-driven transcription”. Also, the “proliferation (cell number)” value in series [4] (T. annulata-infected B cells, 1 μM penetrating peptide, 24 h and 48 h, average of 3 independent experiments) is reported as “induced a significant increase in proliferation”. The infected leukocyte proliferation result in series [4] (discussion statement) is “promote infected leukocyte proliferation”. Also, in the series on BL20/TBL20 cells, the cell viability entry was “no effect on cell viability”. For the same substance, the RB-HDAC1 binding result with RB-HDAC1 is “block RB-HDAC1 binding”.
As for “E2F1: host E2F transcription factor, known RB pocket domain binder”, the “RB binding in words” value in series [5] is “binding to the RB pocket domain”. The “competition with E2F-1 for RB pocket domain binding” value with RB pocket domain / E2F-1 is reported as “does not compete with full-length TpGcpE for binding to the RB pocket domain”.
